Source: ChEMBL document CHEMBL5665443, “Enzyme Inhibitor Single Concentration assay results for EUbOPEN Chemogenomics Library” (2024)

How the values were obtained:
[1] = target: Methyl-CpG-binding domain protein 4 (Homo sapiens) (UniProt O95243); details: Hit No;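 further: MBD4 activity read as fluorescence at 594 nm from cleavage and release of a quenched duplex DNA oligonucleotide, with APE1 coupled to incise the strand and raise turnover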
Description: Inhibition of MBD4 by quantifying inhibition of MBD4-mediated cleavage and dissociation of quenched duplex DNA oligonucleotides, measured as fluorescence at 594 nm. To generate a functional strand incision and increase turn-over this assay is coupled to APE1.

[2] = target: T1, Endonuclease III-like protein 1 (Homo sapiens) (UniProt P78549); details: Hit No;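 further: enzyme assay tracking NTHL1 cutting and release of a quenched double-stranded DNA oligo substrate, read as fluorescence at 594 nm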
T1 sequence (whole entry): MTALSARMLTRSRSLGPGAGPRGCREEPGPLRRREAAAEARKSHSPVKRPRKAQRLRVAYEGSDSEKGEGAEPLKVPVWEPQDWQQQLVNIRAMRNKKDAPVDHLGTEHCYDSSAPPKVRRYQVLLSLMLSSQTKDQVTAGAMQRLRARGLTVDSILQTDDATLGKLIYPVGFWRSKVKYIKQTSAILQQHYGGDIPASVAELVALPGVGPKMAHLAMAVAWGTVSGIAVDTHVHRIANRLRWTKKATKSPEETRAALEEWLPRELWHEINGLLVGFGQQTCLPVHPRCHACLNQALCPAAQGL
Description: Inhibition of NTHL1 by quantifying inhibition of NTHL1-mediated cleavage and dissociation of quenched duplex DNA oligonucleotides, measured as fluorescence at 594 nm.

[3] = target: T2, Single-strand selective monofunctional uracil DNA glycosylase (Homo sapiens) (UniProt Q53HV7); details: Hit No;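 further: enzymatic SMUG1 assay coupled with APE1, reading fluorescence at 594 nm released when a quenched double-stranded DNA oligonucleotide substrate is cleaved and separated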
T2 sequence (whole entry): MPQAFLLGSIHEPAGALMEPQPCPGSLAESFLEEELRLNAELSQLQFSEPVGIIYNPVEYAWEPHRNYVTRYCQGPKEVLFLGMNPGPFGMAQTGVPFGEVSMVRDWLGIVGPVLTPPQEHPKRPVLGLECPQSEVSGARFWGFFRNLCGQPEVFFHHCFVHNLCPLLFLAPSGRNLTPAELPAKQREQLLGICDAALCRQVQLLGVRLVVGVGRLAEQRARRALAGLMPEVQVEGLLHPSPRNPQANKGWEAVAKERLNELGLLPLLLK
Description: Inhibition of SMUG1 by quantifying inhibition of SMUG1-mediated cleavage and dissociation of quenched duplex DNA oligonucleotides, measured as fluorescence at 594 nm. To generate a functional strand incision and increase turn-over this assay is coupled to APE1.

[4] = target: G/T mismatch-specific thymine DNA glycosylase (Homo sapiens) (UniProt Q13569); details: Hit No;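 further: human TDG cleavage of quenched duplex DNA oligonucleotides coupled to APE1, strand release read as fluorescence at 594 nm, inhibition of TDG activity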
Description: Inhibition of TDG by quantifying inhibition of TDG-mediated cleavage and dissociation of quenched duplex DNA oligonucleotides, measured as fluorescence at 594 nm. To generate a functional strand incision and increase turn-over this assay is coupled to APE1.

[5] = target: T3, Adenine DNA glycosylase (Homo sapiens) (UniProt Q9UIF7); details: Hit No;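 further: human MUTYH activity read as 594 nm fluorescence from cleavage and release of a quenched DNA duplex, coupled with APE1 for strand incision, lower signal meaning inhibition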
T3 sequence (whole entry): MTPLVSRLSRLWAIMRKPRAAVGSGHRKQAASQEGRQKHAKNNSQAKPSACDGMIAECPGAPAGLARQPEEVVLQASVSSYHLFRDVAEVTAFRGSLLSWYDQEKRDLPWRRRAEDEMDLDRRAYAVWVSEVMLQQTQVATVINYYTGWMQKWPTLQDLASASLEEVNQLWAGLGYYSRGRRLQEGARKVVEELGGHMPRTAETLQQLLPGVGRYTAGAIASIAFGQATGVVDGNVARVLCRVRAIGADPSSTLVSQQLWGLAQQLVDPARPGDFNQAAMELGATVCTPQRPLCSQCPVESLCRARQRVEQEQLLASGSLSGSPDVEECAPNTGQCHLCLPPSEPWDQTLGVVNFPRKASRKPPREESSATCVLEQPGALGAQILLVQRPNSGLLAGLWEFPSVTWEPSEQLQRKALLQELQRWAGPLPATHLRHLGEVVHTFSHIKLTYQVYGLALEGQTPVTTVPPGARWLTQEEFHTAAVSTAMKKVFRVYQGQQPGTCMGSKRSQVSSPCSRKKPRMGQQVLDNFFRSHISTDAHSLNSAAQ
Description: Inhibition of MUTYH by quantifying inhibition of MUTYH-mediated cleavage and dissociation of quenched duplex DNA oligonucleotides, measured as fluorescence at 594 nm. To generate a functional strand incision and increase turn-over this assay is coupled to APE1.

[6] = target: T4, Endonuclease 8-like 2 (Homo sapiens) (UniProt Q969S2); details: Hit No;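 further: fluorescence at 594 nm reports NEIL2 cutting and release of a quenched double-stranded DNA oligo substrate, reduced signal read as inhibition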
T4 sequence (whole entry): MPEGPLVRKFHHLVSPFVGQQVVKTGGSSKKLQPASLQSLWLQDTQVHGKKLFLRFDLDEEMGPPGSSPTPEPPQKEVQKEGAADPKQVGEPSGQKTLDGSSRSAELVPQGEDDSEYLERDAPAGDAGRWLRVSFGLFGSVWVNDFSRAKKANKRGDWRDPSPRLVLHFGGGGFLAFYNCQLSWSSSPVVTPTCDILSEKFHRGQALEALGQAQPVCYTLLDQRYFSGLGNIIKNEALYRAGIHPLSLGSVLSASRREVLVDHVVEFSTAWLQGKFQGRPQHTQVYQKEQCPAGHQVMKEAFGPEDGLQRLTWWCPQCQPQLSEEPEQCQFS
Description: Inhibition of NEIL2 by quantifying inhibition of NEIL2-mediated cleavage and dissociation of quenched duplex DNA oligonucleotides, measured as fluorescence at 594 nm.

[7] = target: Endonuclease 8-like 1 (Homo sapiens) (UniProt Q96FI4); details: Hit No;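 further: fluorescence at 594 nm from quenched duplex DNA oligonucleotides released by NEIL1 cleavage and strand separation, reported as reduction of this enzyme activity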
Description: Inhibition of NEIL1 by quantifying inhibition of NEIL1-mediated cleavage and dissociation of quenched duplex DNA oligonucleotides, measured as fluorescence at 594 nm.

[8] = target: Uracil-DNA glycosylase (Homo sapiens) (UniProt P13051); details: Hit No;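 further: UNG excision on a quenched double-stranded DNA oligo probe, with APE1 added for strand incision and turnover, read as fluorescence at 594 nm as strands separate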
Description: Inhibition of UNG by quantifying inhibition of UNG-mediated cleavage and dissociation of quenched duplex DNA oligonucleotides, measured as fluorescence at 594 nm. To generate a functional strand incision and increase turn-over this assay is coupled to APE1.

[9] = target: N-glycosylase/DNA lyase (Homo sapiens) (UniProt O15527);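 further: OGG1 cleavage of a quenched duplex DNA oligonucleotide, coupled to APE1 for strand incision, read as fluorescence at 594 nm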
Description: Inhibition of OGG1 by quantifying inhibition of OGG1-mediated cleavage and dissociation of quenched duplex DNA oligonucleotides, measured as fluorescence at 594 nm. To generate a functional strand incision and increase turn-over this assay is coupled to APE1.

[10] = Compound Concentration 10.0 uM, Hit No
[11] = Compound Concentration 1.0 uM, Hit No
[12] = Compound Concentration 10.0 uM, Hit Yes

N-glycosylase/DNA lyase (Homo sapiens), sequence (O15527 whole entry): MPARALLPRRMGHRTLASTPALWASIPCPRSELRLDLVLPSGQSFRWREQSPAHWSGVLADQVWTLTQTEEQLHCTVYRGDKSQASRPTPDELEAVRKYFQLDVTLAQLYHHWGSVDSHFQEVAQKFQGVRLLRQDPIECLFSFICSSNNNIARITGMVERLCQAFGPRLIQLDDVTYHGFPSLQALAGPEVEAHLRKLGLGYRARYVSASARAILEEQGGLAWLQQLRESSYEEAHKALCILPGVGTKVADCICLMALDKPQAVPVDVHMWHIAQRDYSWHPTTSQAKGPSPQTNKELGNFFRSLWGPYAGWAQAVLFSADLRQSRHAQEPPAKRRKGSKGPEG
Uracil-DNA glycosylase (Homo sapiens), sequence (P13051 whole entry): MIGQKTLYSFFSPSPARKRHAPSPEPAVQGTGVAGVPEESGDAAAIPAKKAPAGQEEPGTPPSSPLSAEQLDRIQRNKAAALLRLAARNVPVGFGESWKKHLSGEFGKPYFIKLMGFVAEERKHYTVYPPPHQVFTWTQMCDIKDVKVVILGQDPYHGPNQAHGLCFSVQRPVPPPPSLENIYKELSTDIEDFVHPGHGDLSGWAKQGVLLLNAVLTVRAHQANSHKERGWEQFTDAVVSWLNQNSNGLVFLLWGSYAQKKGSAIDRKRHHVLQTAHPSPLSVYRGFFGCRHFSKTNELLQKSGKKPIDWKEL
Methyl-CpG-binding domain protein 4 (Homo sapiens), sequence (O95243 whole entry, the tested form may be a part): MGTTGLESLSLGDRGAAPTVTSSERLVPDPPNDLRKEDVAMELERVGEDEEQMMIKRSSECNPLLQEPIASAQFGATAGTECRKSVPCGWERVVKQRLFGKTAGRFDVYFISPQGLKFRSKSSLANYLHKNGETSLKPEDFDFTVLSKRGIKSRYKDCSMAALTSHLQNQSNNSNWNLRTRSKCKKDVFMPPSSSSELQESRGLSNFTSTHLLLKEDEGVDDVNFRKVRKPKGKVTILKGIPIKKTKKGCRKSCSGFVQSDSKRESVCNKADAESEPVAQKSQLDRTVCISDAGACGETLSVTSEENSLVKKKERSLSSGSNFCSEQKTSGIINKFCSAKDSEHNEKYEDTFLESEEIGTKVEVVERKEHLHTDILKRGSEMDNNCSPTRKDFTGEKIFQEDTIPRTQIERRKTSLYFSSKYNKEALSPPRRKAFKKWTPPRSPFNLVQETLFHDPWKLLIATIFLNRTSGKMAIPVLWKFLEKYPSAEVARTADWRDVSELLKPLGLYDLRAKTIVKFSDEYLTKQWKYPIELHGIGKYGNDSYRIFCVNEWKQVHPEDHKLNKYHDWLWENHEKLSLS
G/T mismatch-specific thymine DNA glycosylase (Homo sapiens), sequence (Q13569 whole entry): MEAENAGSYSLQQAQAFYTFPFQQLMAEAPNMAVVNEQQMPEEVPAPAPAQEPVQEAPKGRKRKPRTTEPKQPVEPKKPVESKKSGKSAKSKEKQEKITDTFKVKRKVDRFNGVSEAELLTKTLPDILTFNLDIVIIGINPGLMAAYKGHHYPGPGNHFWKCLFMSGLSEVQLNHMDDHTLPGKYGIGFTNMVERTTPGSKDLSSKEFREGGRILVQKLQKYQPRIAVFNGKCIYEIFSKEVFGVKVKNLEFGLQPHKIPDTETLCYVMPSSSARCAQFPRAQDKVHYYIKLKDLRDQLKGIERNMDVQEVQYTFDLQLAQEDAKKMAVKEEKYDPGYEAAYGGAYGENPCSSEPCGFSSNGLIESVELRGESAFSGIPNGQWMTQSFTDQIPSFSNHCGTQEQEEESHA
Endonuclease 8-like 1 (Homo sapiens), sequence (Q96FI4 whole entry): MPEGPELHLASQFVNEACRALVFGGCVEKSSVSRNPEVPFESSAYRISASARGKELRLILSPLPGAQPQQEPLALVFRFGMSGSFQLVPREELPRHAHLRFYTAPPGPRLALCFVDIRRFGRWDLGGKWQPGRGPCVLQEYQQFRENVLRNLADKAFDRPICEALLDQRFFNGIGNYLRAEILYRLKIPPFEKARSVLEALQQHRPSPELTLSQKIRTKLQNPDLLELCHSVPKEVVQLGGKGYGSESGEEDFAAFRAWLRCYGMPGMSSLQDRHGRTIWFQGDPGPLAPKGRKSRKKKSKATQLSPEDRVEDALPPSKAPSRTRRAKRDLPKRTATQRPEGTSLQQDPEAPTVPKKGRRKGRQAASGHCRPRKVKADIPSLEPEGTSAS

SMILES | inhibition ([1]; Compound Concentration 10.0 uM) [%] | inhibition ([2]; Compound Concentration 10.0 uM) [%] | inhibition ([3]; Compound Concentration 10.0 uM) [%] | inhibition ([4]; Compound Concentration 10.0 uM) [%] | inhibition ([5]; Compound Concentration 10.0 uM) [%] | inhibition ([6]; Compound Concentration 10.0 uM) [%] | inhibition ([7]; Compound Concentration 10.0 uM) [%] | inhibition ([8]; Compound Concentration 10.0 uM) [%] | inhibition [9, 10] [%] | inhibition ([1]; Compound Concentration 1.0 uM) [%] | inhibition ([2]; Compound Concentration 1.0 uM) [%] | inhibition ([3]; Compound Concentration 1.0 uM) [%] | inhibition ([4]; Compound Concentration 1.0 uM) [%] | inhibition ([6]; Compound Concentration 1.0 uM) [%] | inhibition ([7]; Compound Concentration 1.0 uM) [%] | inhibition ([8]; Compound Concentration 1.0 uM) [%] | inhibition ([5]; Compound Concentration 1.0 uM) [%] | inhibition [9, 11] [%] | inhibition [9, 12] [%]
N#CN1CC[C@H](C(=O)Nc2nc3c(s2)CN(C(=O)CN=[N+]=[N-])CC3)C1 | 53.6 | 7.92 | 6.53 | 40.4 | -6.77 | 5.89 | 3.04 | 1.18 | -6.61 | – | – | – | – | – | – | – | – | – | –
Cc1c(N2CCNCC2)nc2ccc(Br)cc2c1C(=O)NC[C@H](CCC(=O)O)c1ccccc1Cl | 54.3 | -7.86 | 15 | 41.3 | 16.7 | 0.276 | -1.8 | 3.28 | -2.82 | – | – | – | – | – | – | – | – | – | –
Cc1ccc(-c2cnc([C@@]3(O)CC[C@H](C(=O)O)C(C)(C)C3)s2)cc1Nc1cccc(C(F)(F)F)n1 | 60.9 | -1.95 | 11.6 | 58.3 | 13.4 | – | -8.92 | 2.77 | 5.44 | 1.64 | -6.89 | 6.55 | 36.9 | 1.58 | -1.05 | -2.23 | – | – | –
CC1(C)CCC(C)(C)c2cc(NC(=O)c3ccc(C(=O)O)cc3)ccc21 | 58.9 | 1.34 | 7.75 | 47.2 | 0.879 | 4.36 | -4.53 | 0.0471 | 31.6 | – | – | – | – | – | – | – | – | – | –
Cc1cc(Nc2nccc(C)n2)cc(-c2cnc([C@@]3(O)CC[C@H](C(=O)O)C(C)(C)C3)s2)c1 | – | – | – | – | – | – | – | – | – | 25.6 | -4.56 | 13.6 | 40.8 | -5.61 | -7.58 | 2.21 | 3.53 | 9.85 | –
Fc1ccc(-c2c3cccc(C(F)(F)F)c3nn2Cc2ccc(F)cc2Cl)cc1 | 53.9 | -1.29 | 12.2 | 53.1 | 1.43 | -0.489 | -7.41 | 4.08 | 8 | – | – | – | – | – | – | – | – | – | –
COc1cccc(-c2nccc3c2CN(c2ccccc2)C3=O)c1 | – | – | – | – | – | – | – | – | – | 63.1 | 4.63 | 17.8 | 45.5 | 7.16 | -3.77 | 3.9 | -4.69 | 5.54 | –
CCOC(=O)C1Cc2ccccc2CN1C(=O)c1ccc(SC)s1 (configuration not stated) | 59.4 | 1.34 | 19.5 | 98.9 | -2.13 | 4.36 | -1.35 | 0.734 | 13.5 | – | – | – | – | – | – | – | – | – | –
NC1(c2ccc(-c3nc4c(O)ccnn4c3-c3ccccc3)cc2)CCC1 | 29 | – | 19.3 | 52.1 | 14.3 | -3.27 | -6.47 | -0.0214 | – | 76.1 | -7.86 | 19.9 | 59.1 | -0.489 | -7.26 | 7.66 | 23.6 | 10.4 | –
COCCCS(=O)(=O)c1cc(C)c(-c2ccc(F)c3c2CC[C@H]3Oc2ccc3c(c2)OC[C@H]3CC(=O)O)c(C)c1 | 67.8 | -5.89 | 6.73 | 59.1 | -1.52 | 6.65 | -3.62 | -1.09 | 31 | – | – | – | – | – | – | – | – | – | –
Cc1oc2ccccc2c1Cc1cc(I)c(OCC(=O)O)c(I)c1 | 67.1 | 17.8 | 47.4 | 98.9 | 29.3 | 3.34 | 0.619 | 6.35 | – | – | – | – | – | – | – | – | – | – | 91.8
CC(C)(O)CNc1ncc(-c2ccnc(Nc3ccnc(Cl)c3)n2)c(CC2CC2)n1 | -8.47 | 5.67 | 21.2 | 44.6 | 0.0658 | -9.73 | -7.52 | -2.03 | -4.97 | – | – | – | – | – | – | – | – | – | –
O[C@]1(C(F)(F)F)CCCC[C@H]1Nc1ccc(F)cc1 | – | – | – | – | – | – | – | – | – | 54.7 | 4.63 | 15.6 | 46.6 | 6.91 | 3.35 | 2.12 | -4.37 | -4.39 | –
C[C@H](NC(=O)c1c(C(F)F)nn(C)c1Oc1cccc(C(F)(F)F)c1)c1ccc(C(=O)O)cc1 | -2.06 | 16.6 | 2.15 | 11.8 | 15.2 | 11.8 | -3.02 | -7.93 | -5.88 | – | – | – | – | – | – | – | – | – | –
Cc1cc(-n2nc(Cc3cc(F)cc(C(F)(F)F)c3)nc2C)ccc1C(N)=O | 59.6 | 7.26 | 18.8 | 97.3 | 0.715 | -0.234 | -6.95 | 2.38 | -5.77 | – | – | – | – | – | – | – | – | – | –
O=C(O)c1ccc(-c2coc3ncc(-c4ccccc4)cc23)cc1Cl | -2.05 | 1.48 | 25.7 | 45.9 | 30.1 | 1.31 | 7.67 | 3.81 | 13.2 | – | – | – | – | – | – | – | – | – | –
CCNC(=O)N1CCCN(c2ccc(C(=O)NCCc3ccc(Cl)cc3Cl)cc2NC(=O)c2cccc(Cl)c2)CC1 | -1.37 | -5.21 | 5.69 | 3.38 | 5.24 | 3.98 | 3.27 | 3.51 | -8.02 | – | – | – | – | – | – | – | – | – | –
C=C(C)[C@H]1CN[C@H](C(=O)O)[C@H]1CC(=O)O | 2.41 | -1.08 | -0.636 | -2.38 | 8.87 | -3.66 | -4.88 | -5.09 | -6.14 | – | – | – | – | – | – | – | – | – | –
CC(C)(C[C@H]1CN(S(=O)(=O)c2cccc(C(F)(F)F)c2)c2cc(-c3cc(F)cc(OC(F)F)c3)ccc2O1)C(=O)O | 69 | -3.92 | 22.1 | 72.3 | 4.92 | 1.55 | -6.65 | 3.71 | – | – | – | – | – | – | – | – | – | – | 101
CN(C)[C@@H]1CCN(c2cc(-c3ccccc3)nc3ccnn23)C1 | 79.8 | -6.55 | 16.1 | 46.8 | 10.5 | 22.2 | 4.86 | 7.63 | 7.46 | – | – | – | – | – | – | – | – | – | –
CCOc1cc(N2CCC(O)CC2)ccc1Nc1ncc2c(n1)N(C)c1ccccc1C(=O)N2C | 17.2 | 1.48 | 19.5 | 59.4 | 18.6 | 2.66 | -3.56 | 12.3 | -8.63 | – | – | – | – | – | – | – | – | – | –
